Experimental data: patent US6761884B1, “Vectors including foreign genes and negative selective markers” (The United States of America as represented by the …, priority 1991, dated 2004)

Key:
untransduced WP4 cells = experiment: Ganciclovir killing of untransduced WP4 cells, methylene blue staining; format: cell-based, murine; details: 24-well plate, ganciclovir 0.01-100 uM, stained at 5 to 7 days
Method: This example employs a clone (WP4) (Asher et al., J. Inmunol, Vol. 146, pg. 3227 (1991)) of a murine tumor cell line MCA205 (Wexler et al., J. Natl. Canc. Inst., Vol. 63, pg. 1393 (1979)) for assessing the utility of the HSV-TK gene in a “suicide” system.
Transduced “selected” cells are then plated in 24-well tissue culture plate at 1-2.5×10^4 cells per well. After 24 hrs. of culture, ganciclovir is added in concentrations ranging from 0.01-100 uM, the cells are monitored for growth and all wells are stained in methylene blue when the control wells (no ganciclovir added) are confluent (at 5 to 7 days). Complete killing of transduced selected cells is observed at concentrations from 0.1 to 1.0 uM of ganciclovir, while untransduced cells are killed at concentrations of 100 uM or greater.

[1] = test system: WP4 tumor cells containing the HSV-TK gene; experiment: Subcutaneous tumors from WP4 cells containing the HSV-TK gene in mice, ganciclovir treatment; format: in vivo, C57BL/6 or BNX mice
Method: (§1) WP4 tumor cells form tumors in C57BL/6 or BNX mice when injected subcutaneously. The number of cells required for tumor formation will vary depending of the strain of mouse used. C57BL/6 mice require 5×10^6-1×10^7 cells for tumor formation in 10-14 days. BNX mice require 1-5×10^4 cells for tumor formation in 10-14 days. Tumor cells are suspended in PBS and injected subcutaneously into the hind flank in a 0.5 ml volume. Five to ten days after tumor inoculation, ganciclovir is administered intraperitoneally twice daily for 5 days. A 2-5 mg/ml solution of ganciclovir prepared in serum-free medium (RPMI 1640, DMEM, or other) is used to achieve a dose of 125-150 mg/kg. Animals are monitored and tumor measurements made twice weekly.
(§2) At the time of ganciclovir administration, tumors are palpable, but unmeasurable. Tumors arising from untransduced WP4 cells reach a size of 2.0-2.5 cm^3 in 40-45 days with or without ganciclovir administration. Tumor cells containing the HSV-TK gene initially form palpable tumors then regress completely and become undetectable within 10-20 days after the start of ganciclovir treatment. Complete, long term tumor ablation is observed in 60-80% of mice having received selected cells plus ganciclovir therapy.

[2] = test system: untransduced WP4 tumor cells; experiment: Subcutaneous tumors from untransduced WP4 cells in mice, ganciclovir treatment; format: in vivo, C57BL/6 or BNX mice; details: in 40-45 days, with or without ganciclovir administration (125-150 mg/kg i.p. twice daily for 5 days)
Method: as §1, §2

Nc1nc(O)c2ncn(COC(CO)CO)c2n1 [ganciclovir]
Concentration at which untransduced cells are killed (untransduced WP4 cells): ≥ 100 µM | Time after start of ganciclovir treatment by which tumors regress completely and become undetectable ([1]; 125-150 mg/kg intraperitoneally twice daily for 5 days, started 5-10 days after tumor inoculation): 10 to 20 days | Mice with complete, long term tumor ablation ([1]; mice having received selected cells plus ganciclovir therapy, 125-150 mg/kg i.p. twice daily for 5 days): 60-80% | Tumor size reached by tumors arising from untransduced WP4 cells [2]: 2.0-2.5 cm^3
